Reference: US20240174641A1, “HETEROCYCLIC COMPOUNDS CAPABLE OF […]” (Boehringer Ingelheim International GmbH, priority 2022, published 2024)

Experiments:
[1] = molecular target: STING (Canis lupus familiaris, UniProt A0A8I3MH52); assay: Dog whole blood (dWB) assay, IFNb secretion by ELISA; assay type: cell-based; conditions: canine Interferon-beta (IFNb) ELISA, 4 h incubation at 37° C.
Description: For the detection of STING activation in physiological environment dog whole blood (dWB) was stimulated by the cyclic dinucleotide cGAMP or a test compound. Pathway activity was monitored by measuring the IFNb production.
Compounds were delivered as 10 mM DMSO solution, diluted and transferred by using an Echo acoustic dispenser to the 384 well assay plate (Greiner #781182), pre-filled with 10 μl 1×HBSS in each well (10×HBSS (+Ca/+Mg), #14065-049, Gibco). Typically, 8 concentrations were used with the highest concentration at 10 μM in the final assay volume followed by approximately 1:4 dilution steps. DMSO concentration was set to 0.1% in the final assay volume. The 384-well assay plate contained 20 test compounds and DMSO in control and cGAMP standard wells. The dog whole blood was collected as Na-Citrate blood (e.g., 3.8% in Monovettes from Sarstedt) and kept at 4° C. overnight until use in the assay. 80 μl of the whole blood samples were transferred to each well of the 384-well assay plates filled with compound/1×HBSS. Blood plates were kept at room temperature for 60 minutes and continuous shaking with 450 rpm, covered with the lid, but not sealed. A 10×cGAMP assay solution was diluted from a 2 mM stock solution in 1×HBSS immediately before use at room temperature. 10 μl of the 10×cGAMP/HBSS were added to the high control wells, whereas HBSS only was added to all compound and low control wells. After covering assay plates with the lid, blood plates were kept for a 4 h incubation at 37° C. in the incubator, without shaking. For the detection of IFNb in dog plasma the ELISA Kit for Canine Interferon Beta (Biotrend #SEA222Ca) was used. Whole blood assay plates were centrifuged at 1000 g for 10 minutes at 8° C. […] was transferred with a 96 well pipetting robotics from the 384 well whole blood plate to the corresponding 96 well ELISA plate, pre-filled with 60 μl assay diluent in each well. Plates were sealed with microplate seals and kept at 4° C. overnight again. ELISA plates were brought to room temperature, followed by a 1 h incubation at 37° C. in the incubator. Detection Reagent A working solution was prepared by diluting Detection Reagent A 1:100 in Assay Reagent A. Liquid was then removed from the 96 well ELISA plate to add 100 μL Detection Reagent A working solution to each well. ELISA plates were covered with the plate sealer and incubated for 1 hour at 37° C. in the incubator. The 1× Wash buffer was prepared by diluting the 30× Wash Buffer Concentrate in H2O. Detection Reagent B working solution was prepared by diluting Detection Reagent B 1:100 in Assay Reagent B. The ELISA plates were washed three times with 350 μl wash buffer and afterwards inverted and blotted against absorbent paper to remove any liquid. 100 μL of Detection Reagent B working solution was added to each well of the ELISA plates, which are then covered with the plate sealer and incubated for 30 minutes at 37° C. in the incubator. After incubation the ELISA assay plates were washed five times with 350 μl wash buffer and were again inverted and blotted against absorbent paper to remove any remaining liquid. 90 μL of TMB Substrate was added to each well of the ELISA plates, which were then covered with the plate sealer and incubated for 15 minutes at 37° C. in the incubator. The reaction was stopped by adding 50 μL stop solution and absorbance was measured at 450 nm immediately.
For data evaluation and calculation, % control calculation of each well was based on the mean of high (cGAMP stimulated control) and mean of low (unstimulated control) controls by using the following standard 4 parameter logistic regression formula:
[y=(a−d)/(1+(x/c)^b)+d] • a=low value, • d=high value, • x=conc M, • c=EC50 M, • b=slope. Dog Liver Microsome (dLM) Assay

[2] = tested on: dog STING (dSTING); assay: Dog differential scanning fluorimetry (DSF) assay, thermal shift of dog STING protein; assay type: binding; conditions: DSF (dDSF); 100 μM compound, 3 μM dog STING protein; Tm with ligand minus Tm of protein alone
Method in brief: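 Dog STING residues 149–375, His-tag removed by TEV, tested at 3 μM with 100 μM compound, 5× SYPRO Orange and 2% DMSO in 20 mM Tris, 150 mM NaCl, pH 7.5. Heated 15–95 °C in 0.5 °C steps. Tm from Boltzmann fit, duplicates averaged; ΔTm relative to protein alone.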

STING, sequence (A0A8I3MH52 1-374): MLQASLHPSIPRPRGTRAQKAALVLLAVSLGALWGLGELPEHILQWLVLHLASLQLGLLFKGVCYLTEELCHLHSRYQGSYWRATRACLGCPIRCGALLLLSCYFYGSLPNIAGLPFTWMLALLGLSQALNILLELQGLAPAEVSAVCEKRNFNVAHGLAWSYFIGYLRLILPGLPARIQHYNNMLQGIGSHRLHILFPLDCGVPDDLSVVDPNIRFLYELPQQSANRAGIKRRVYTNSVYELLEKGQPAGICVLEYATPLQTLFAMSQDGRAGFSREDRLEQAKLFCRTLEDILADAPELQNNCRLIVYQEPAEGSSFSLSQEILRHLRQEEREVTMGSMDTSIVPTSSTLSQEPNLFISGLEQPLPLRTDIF

Structure (SMILES): Cc1cccc2c(-c3cccc4nn(C)c(F)c34)nn(-c3ccc(N4CC[C@H](CC(=O)O)C4)nc3)c12 [Example 17, 2-[(3R)-1-(5-{3″-fluoro-2″,7-dimethyl-1H,2″H-[3,4″-biindazol]-1-yl}pyridin-2-yl)pyrrolidin-3-yl]acetic acid]
- EC50 [1]: 185 nM
- Delta TM [2]: 35.8 °C

Structure (SMILES): CC(=O)N1C[C@@H]2C[C@H]1CN2c1ccc(-n2nc(-c3cccc4nn(C)c(F)c34)c3cccc(C)c32)cn1 [Example 21, 1-[(1S,4S)-5-(5-{3″-fluoro-2″,7-dimethyl-1H,2″H-[3,4″-biindazol]-1-yl}pyridin-2-yl)-2,5-diazabicyclo[2.2.1]heptan-2-yl]ethan-1-one]
- EC50 [1]: 1010 nM
- Delta TM [2]: 24.9 °C

Structure (SMILES): CC(=O)N1C[C@H]2C[C@@H]1CN2c1ccc(-n2nc(-c3cccc4nn(C)c(F)c34)c3cccc(C)c32)cn1 [Example 22, 1-[(1R,4R)-5-(5-{3″-fluoro-2″,7-dimethyl-1H,2″H-[3,4″-biindazol]-1-yl}pyridin-2-yl)-2,5-diazabicyclo[2.2.1]heptan-- 2-yl]ethan1-one]
- EC50 [1]: 244 nM
- Delta TM [2]: 30.4 °C

Structure (SMILES): CC(=O)N1CC2CCC1CN2c1ccc(-n2nc(-c3cccc4nn(C)c(F)c34)c3cccc(C)c32)cn1 (stereo not shown) [Example 23, 1-[5-(5-{3″-fluoro-2″,7-dimethyl-1H,2″H-[3,4″-biindazol]-1-yl}pyridin-2-yl)-2,5-diazabicyclo[2.2.2]octan-2-yl]ethan-1-one]
- EC50 [1]: 219 nM
- Delta TM [2]: 29.6 °C

Structure (SMILES): Cc1cccc2c(-c3c(F)ccc4nn(C)cc34)nn(-c3ccc(N4CC[C@@H](CC(=O)O)C4)nc3)c12 [Example 24, 2-[(3S)-1-(5-{5″-fluoro-2″,7-dimethyl-1H,2″H-[3,4″-biindazol]-1-yl}pyridin-2-yl)pyrrolidin-3-yl]acetic acid]
- EC50 [1]: 270 nM
- Delta TM [2]: 35.5 °C

Structure (SMILES): Cc1cccc2c(-c3c(F)ccc4nn(C)cc34)nn(-c3ccc(N4CC[C@H](CC(=O)O)C4)nc3)c12 [Example 25, 2-[(3R)-1-(5-{5″-fluoro-2″,7-dimethyl-1H,2″H-[3,4″-biindazol]-1-yl}pyridin-2-yl)pyrrolidin-3-yl]acetic acid]
- EC50 [1]: 283 nM
- Delta TM [2]: 37.0 °C

Structure (SMILES): Cc1cccc2c(-c3c(F)ccc4nn(C)cc34)nn(-c3ccc(N4C[C@@H]5C[C@H]4C[C@H]5C(=O)O)nc3)c12 [Example 27-1, (1S,4R,5R)-2-(5-{5″-fluoro-2″,7-dimethyl-1H,2″H-[3,4″-biindazol]-1-yl}pyridin-2-yl)-2-azabicyclo[2.2.1]heptane-5-carboxylic acid]
- EC50 [1]: 211 nM
- Delta TM [2]: 36.9 °C

Structure (SMILES): Cc1cccc2c(-c3c(F)ccc4nn(C)cc34)nn(-c3ccc(N4C[C@H]5C[C@@H]4C[C@@H]5C(=O)O)nc3)c12 [Example 27-2, (1R,4S,5S)-2-(5-{5″-fluoro-2″,7-dimethyl-1H,2″H-[3,4″-biindazol]-1-yl}pyridin-2-yl)-2-azabicyclo[2.2.1]heptane-5-carboxylic acid]
- EC50 [1]: 247 nM
- Delta TM [2]: 35.6 °C

Structure (SMILES): CC(=O)N1CCN(c2ccc(-n3nc(-c4c(F)ccc5nn(C)cc45)c4cccc(C)c43)cn2)CC1 [Example 29, 1-[4-(5-{5″-fluoro-2″,7-dimethyl-1H,2″H-[3,4″-biindazol]-1-yl}pyridin-2-yl)piperazin-1-yl]ethan-1-one]
- EC50 [1]: 140 nM
- Delta TM [2]: 32.0 °C

Structure (SMILES): CC(=O)N1C[C@@H]2C[C@H]1CN2c1ccc(-n2nc(-c3c(F)ccc4nn(C)cc34)c3cccc(C)c32)cn1 [Example 30, 1-[(1S,4S)-5-(5-{5″-fluoro-2″,7-dimethyl-1H,2″H-[3,4″-biindazol]-1-yl}pyridin-2-yl)-2,5-diazabicyclo[2.2.1]heptan-2-yl]ethan-1-one]
- EC50 [1]: 227 nM
- Delta TM [2]: 30.8 °C

Structure (SMILES): CC(=O)N1C[C@H]2C[C@@H]1CN2c1ccc(-n2nc(-c3c(F)ccc4nn(C)cc34)c3cccc(C)c32)cn1 [Example 31, 1-[(1R,4R)-5-(5-{5″-fluoro-2″,7-dimethyl-1H,2″H-[3,4″-biindazol]-1-yl}pyridin-2-yl)-2,5-diazabicyclo[2.2.1]heptan-2-yl]ethan-1-one]
- EC50 [1]: 101 nM
- Delta TM [2]: 30.5 °C

Structure (SMILES): Cc1cccc2c(-c3cc(F)cc4nn(C)cc34)nn(-c3ccc(N4C[C@@H]5[C@H](C4)[C@H]5C(=O)O)nc3)c12 [Example 34, (1R,5S,6R)-3-(5-{6″-fluoro-2″,7-dimethyl-1H,2″H-[3,4″-biindazol]-1-yl}pyridin-2-yl)-3-azabicyclo[3.1.0]hexane-6-carboxylic acid]
- EC50 [1]: 3280 nM
- Delta TM [2]: 24.8 °C

Structure (SMILES): Cc1cccc2c(-c3c(F)cc(F)c4nn(C)cc34)nn(-c3ccc(N4CCC(C(=O)O)CC4)nc3)c12 [Example 44, 1-(5-{5″,7″-difluoro-2″,7-dimethyl-1H,2″H-[3,4″-biindazol]-1-yl}pyridin-2-yl)piperidine-4-carboxylic acid]
- EC50 [1]: 388 nM
- Delta TM [2]: 34.5 °C

Structure (SMILES): Cc1cccc2c(-c3c(F)cc(F)c4nn(C)cc34)nn(-c3ccc(N4CC[C@@H](CC(=O)O)C4)nc3)c12 [Example 45, 2-[(3S)-1-(5-{5″,7″-difluoro-2″,7-dimethyl-1H,2″H-[3,4″-biindazol]-1-yl}pyridin-2-yl)pyrrolidin-3-yl]acetic acid]
- EC50 [1]: 601 nM
- Delta TM [2]: 33.0 °C

Structure (SMILES): Cc1cccc2c(-c3c(F)cc(F)c4nn(C)cc34)nn(-c3ccc(N4CC[C@H](CC(=O)O)C4)nc3)c12 [Example 46, 2-[(3R)-1-(5-{5″,7″-difluoro-2″,7-dimethyl-1H,2″H-[3,4″-biindazol]-1-yl}pyridin-2-yl)pyrrolidin-3-yl]acetic acid]
- EC50 [1]: 261 nM
- Delta TM [2]: 35.3 °C

Structure (SMILES): CC(=O)N1CCN(c2ccc(-n3nc(-c4c(F)cc(F)c5nn(C)cc45)c4cccc(C)c43)cn2)CC1 [Example 49, 1-[4-(5-{5″,7″-difluoro-2″,7-dimethyl-1H,2″H-[3,4″-biindazol]-1-yl}pyridin-2-yl)piperazin-1-yl]ethan-1-one]
- EC50 [1]: 416 nM
- Delta TM [2]: 30.5 °C

Structure (SMILES): CC(=O)N1C[C@H]2C[C@@H]1CN2c1ccc(-n2nc(-c3c(F)cc(F)c4nn(C)cc34)c3cccc(C)c32)cn1 [Example 51, 1-[(1R,4R)-5-(5-{5″,7″-difluoro-2″,7-dimethyl-1H,2″H-[3,4″-biindazol]-1-yl}pyridin-2-yl)-2,5-diazabicyclo[2.2.1]heptan-2-yl]ethan-1-one]
- EC50 [1]: 670 nM
- Delta TM [2]: 29.0 °C

Structure (SMILES): Cc1cccc2c(-c3ccc(F)c4nn(C)c(F)c34)nn(-c3ccc(N4CCC(C(=O)O)CC4)nc3)c12 [Example 53, 1-(5-{3″,7″-difluoro-2″,7-dimethyl-1H,2″H-[3,4″-biindazol]-1-yl}pyridin-2-yl)piperidine-4-carboxylic acid]
- EC50 [1]: 654 nM
- Delta TM [2]: 33.0 °C

Structure (SMILES): Cc1cccc2c(-c3ccc(F)c4nn(C)c(F)c34)nn(-c3ccc(N4CC[C@@H](CC(=O)O)C4)nc3)c12 [Example 54, 2-[(3S)-1-(5-{3″,7″-difluoro-2″,7-dimethyl-1H,2″H-[3,4″-biindazol]-1-yl}pyridin-2-yl)pyrrolidin-3-yl]acetic acid]
- EC50 [1]: 261 nM
- Delta TM [2]: 30.0 °C

Structure (SMILES): Cc1cccc2c(-c3ccc(F)c4nn(C)c(F)c34)nn(-c3ccc(N4CC[C@H](CC(=O)O)C4)nc3)c12 [Example 55, 2-[(3R)-1-(5-{3″,7″-difluoro-2″,7-dimethyl-1H,2″H-[3,4″-biindazol]-1-yl}pyridin-2-yl)pyrrolidin-3-yl]acetic acid]
- EC50 [1]: 197 nM
- Delta TM [2]: 34.5 °C
